In EP4789671A1, “PHARMACEUTICAL COMPOSITION CONTAINING URACIL DERIVATIVE” (priority 2023, dated 2025):
Several values for one entry are separate records, joined by “and”; a condition that tells them apart may be missing. Equal entries are not always repeated. Where two headings read alike, the source gives them in different places.

Columns and labels:
SARS-CoV-2 [1] = test: Inhibitory activity of cytopathic effect (CPE) in VeroE6/TMPRSS2 cells (Test Example 3); type: cell-based
[2] = Cytotoxicity in MRC-5 cells in the absence of virus (Test Example 5); type: cell-based; conditions: human
Method: MRC-5 cells (2×10^4 cells/well) suspended in growth medium (DMEM supplemented with 10% FBS and penicillin-streptomycin) were seeded into 96-well plates on the day before infection. On the following day, HCoV-OC43 (300 TCID50/well) suspended in maintenance medium (MEM supplemented with 2% FBS and penicillin-streptomycin) was added to infect the cells for 1 hour. The viral fluid is then removed, maintenance medium containing the reagent to be tested is added, and cultured for 72 hours in a CO2 incubator. To evaluate the cytotoxicity of the reagent to be tested, the same procedure was performed in the absence of virus.
The plate that has been cultured for 72 hours is returned to room temperature, subsequently CellTiter-Glo (registered trademark) 2.0 is dispensed into each well, and the plate is mixed using a plate mixer. After standing for a predetermined period of time, the luminescent signal (Lum) is measured using a plate reader.

[3] = tested on: SARS-CoV-2 hCoV-19/Japan/TY41-702/2022 strain (Omicron BE.1/BA.5-like); parameters: species or system Syrian hamsters; conditions: hamster, in vivo
[4] = tested on: SARS-CoV-2 hCoV-19/Japan/TY41-702/2022 strain (Omicron BE.1/BA.5-like); parameters: species or system Syrian hamsters; conditions: hamster, in vivo; remark: listed apart in the source
[5] = tested on: SARS-CoV-2 hCoV-19/Japan/TY41-702/2022 strain (Omicron BE.1/BA.5-like); type: in vivo, Syrian hamsters
HCoV-229E = test: microbe, parasite or virus in culture; type: cell-based; conditions: Human coronavirus 229E, MRC5; MRC-5 cells, 72 hours
[6] = tested on: SARS-CoV-2 hCoV-19/Japan/TY41-702/2022 (Omicron BE.1/BA.5-like); test: Viral proliferation-suppression effect using human airway epithelial cells (Test Example 8); type: cell-based; conditions: Severe acute respiratory syndrome coronavirus 2, Epithelial cell, 48 h
[7] = tested on: SARS-CoV-2 hCoV-19/Japan/TY11-927/2021 (Delta); type: in vivo, Syrian hamsters; conditions: 4 days after initiation of co-housing
[8] = tested on: SARS-CoV-2 hCoV-19/Japan/TY11-927/2021; type: in vivo, Syrian hamsters; conditions: aged (11-month-old) hamsters
SARS-CoV-2 [9] = test: Cytopathic effect (CPE) suppression test using HEK293T/ACE2-TMPRSS2 cells (Test Example 1); type: cell-based; conditions: Severe acute respiratory syndrome coronavirus 2, HEK-293T, 72 h
[10] = tested on: SARS-CoV-2 hCoV-19/Japan/TY7-501/2021; test: Effect of human, mouse and hamster sera on anti-SARS-CoV-2 activity (Test Example 7); type: cell-based; conditions: Severe acute respiratory syndrome coronavirus 2, 24 h, VeroE6/TMPRSS2 cells, viral RNA, 1 day
HCoV-OC43 = test: microbe, parasite or virus in culture; type: cell-based; conditions: Betacoronavirus 1, OC43, MRC5; MRC-5 cells, 72 hours
[11] = target: T1, Recombinant SARS-CoV-2 3CL Protease (Severe acute respiratory syndrome coronavirus 2, UniProt P0DTD1); test: Inhibitory activity test on SARS-CoV-2 3CL protease (Test Example 2-1); type: biochemical; conditions: 8 µM substrate, 6 nM or 0.6 nM enzyme, 3 to 5 hours
T1 construct: Recombinant SARS-CoV-2 3CL Protease; purchased

With `N#CCn1c(N2CC3(C2)CC(F)(F)C3)c(-c2ccc(F)c(Cl)c2)c(=O)n(-c2cncc(Cl)c2)c1=O` [Compound I-1] the EC50 (SARS-CoV-2 [1]; Severe acute respiratory syndrome coronavirus 2, VeroE6/TMPRSS2, Alpha, B. 1. 1. 7, strain QHN002) was 3.85 ± 1.41 nM, the EC50 (SARS-CoV-2 [1]; Severe acute respiratory syndrome coronavirus 2, VeroE6/TMPRSS2, Ancestral, Pango lineage A, strain WK-521) was 8.77 ± 1.92 nM and the EC50 (SARS-CoV-2 [1]; Severe acute respiratory syndrome coronavirus 2, VeroE6/TMPRSS2, Beta, B. 1. 351, strain TY8-612) was 9.64 ± 1.2 nM. The EC50 (SARS-CoV-2 [1]; Severe acute respiratory syndrome coronavirus 2, VeroE6/TMPRSS2, Delta, AY. 122, strain TY11-927) was 4.91 ± 1.29 nM, the EC50 (SARS-CoV-2 [1]; Severe acute respiratory syndrome coronavirus 2, VeroE6/TMPRSS2, Gamma, P. 1, strain TY7-501) was 8.91 ± 1.62 nM and the EC50 (SARS-CoV-2 [1]; Severe acute respiratory syndrome coronavirus 2, VeroE6/TMPRSS2, Omicron BA. 1. 1, strain TY38-871) was 2.63 nM. It also gave an EC50 (SARS-CoV-2 [1]; Severe acute respiratory syndrome coronavirus 2, VeroE6/TMPRSS2, Omicron BA. 2, strain TY40-385) of 7.38 ± 3.82 nM, an EC50 (SARS-CoV-2 [1]; Severe acute respiratory syndrome coronavirus 2, VeroE6/TMPRSS2, Omicron BA. 2. 12. 1, strain TY41-721) of 2.27 ± 0.26 nM and an EC50 (SARS-CoV-2 [1]; Severe acute respiratory syndrome coronavirus 2, VeroE6/TMPRSS2, Omicron BA. 2. 75, strain TY41-716) of 8.44 ± 1.25 nM. For the same molecule, the EC50 (SARS-CoV-2 [1]; Severe acute respiratory syndrome coronavirus 2, VeroE6/TMPRSS2, Omicron BA. 4. 1, strain TY41-703) was 2.45 ± 0.4 nM, the EC50 (SARS-CoV-2 [1]; Severe acute respiratory syndrome coronavirus 2, VeroE6/TMPRSS2, Omicron BA. 4. 6, strain TY41-763) was 6.91 ± 1.21 nM and the EC50 (SARS-CoV-2 [1]; Severe acute respiratory syndrome coronavirus 2, VeroE6/TMPRSS2, Omicron BA. 5. 2. 1, strain TY41-704) was 6.8 ± 1.38 nM. It also gave an EC50 (SARS-CoV-2 [1]; Severe acute respiratory syndrome coronavirus 2, VeroE6/TMPRSS2, Omicron BE. 1/BA. 5-like, strain TY41-702) of 6.54 ± 3.49 nM, an EC50 (SARS-CoV-2 [1]; Severe acute respiratory syndrome coronavirus 2, VeroE6/TMPRSS2, Omicron BF. 7, strain TY41-820) of 9.49 ± 0.56 nM and an EC50 (SARS-CoV-2 [1]; Severe acute respiratory syndrome coronavirus 2, VeroE6/TMPRSS2, Omicron BF. 7. 4. 1, strain TY41-828) of 7.39 ± 1.97 nM. It also gave an EC50 (SARS-CoV-2 [1]; Severe acute respiratory syndrome coronavirus 2, VeroE6/TMPRSS2, Omicron BQ. 1. 1, strain TY41-796) of 11 ± 1.7 nM, an EC50 (SARS-CoV-2 [1]; Severe acute respiratory syndrome coronavirus 2, VeroE6/TMPRSS2, Omicron CH. 1. 1. 11, strain TY41-832) of 5.69 ± 2.44 nM and an EC50 (SARS-CoV-2 [1]; Severe acute respiratory syndrome coronavirus 2, VeroE6/TMPRSS2, Omicron XBB. 1, strain TY41-795) of 5.11 ± 2.15 nM. It also gave an EC50 (SARS-CoV-2 [1]; Severe acute respiratory syndrome coronavirus 2, VeroE6/TMPRSS2, Omicron XBB. 1. 5, strain 23-018) of 7.4 ± 1.08 nM, an EC50 (SARS-CoV-2 [1]; Severe acute respiratory syndrome coronavirus 2, VeroE6/TMPRSS2, Omicron XBB. 1. 9. 1, strain TY41-951) of 12.6 ± 0.9 nM and an EC50 (SARS-CoV-2 [1]; Severe acute respiratory syndrome coronavirus 2, VeroE6/TMPRSS2, Omicron XBB. 1. 16, strain TY41-984) of 7.06 ± 2 nM. The EC50 (SARS-CoV-2 [1]; Severe acute respiratory syndrome coronavirus 2, VeroE6/TMPRSS2, Omicron XBF, strain TY41-831) was 6.27 ± 3.3 nM, the EC50 (SARS-CoV-2 [1]; Severe acute respiratory syndrome coronavirus 2, VeroE6/TMPRSS2, Omicron XE, strain TY41-686) was 7.1 ± 2.59 nM and the CC50 at 72 h [2] was > 100000 nM. For the same molecule, the lung weight/body weight [3] was 8.24 mg/g and 5.75 mg/g and 5.57 mg/g, the body weight [4] was “the decrease in body weight was suppressed” and the body weight loss ([5]; hamster, in vivo) was “suppression of the body weight loss was observed”. For the same molecule, the “viral titers in nasal turbinate homogenates” value ([5]; hamster, in vivo) was 4.80 log10 TCID50/mL and 3.36 log10 TCID50/mL and 5.38 log10 TCID50/mL and 5.01 log10 TCID50/mL, the “plasma concentration exhibiting the effect of suppressing viral proliferation in lung and nasal turbinate homogenates” value ([5]; hamster, in vivo, sc) was ≥ 12 ng/mL and the “plasma concentrations at the time of viral infection exhibiting the effect of suppressing body weight loss” value ([5]; prophylactic subcutaneous administration) was ≥ 6 ng/mL. For the same molecule, the EC50 (HCoV-229E) was 3570 ± 510 nM, the EC90 [6] was 2.41 ± 1.61 nM and the “numbers of non-infected hamsters (Contact) in which viral titers in nasal lavage fluid or supernatants of lung homogenate reached the detection limit (1.8 log10 TCID50/mL) or higher” value ([7]; 3 mg/kg single subcutaneous to Contact 12 hours prior to co-housing) was 5/6. For the same molecule, the “numbers of non-infected hamsters (Contact) in which viral titers in nasal lavage fluid or supernatants of lung homogenate reached the detection limit (1.8 log10 TCID50/mL) or higher” value ([7]; 10 mg/kg single subcutaneous to Contact 12 hours prior to co-housing) was 6/6, the “numbers of non-infected hamsters (Contact) in which viral titers in nasal lavage fluid or supernatants of lung homogenate reached the detection limit (1.8 log10 TCID50/mL) or higher” value ([7]; 30 mg/kg single subcutaneous to Contact 12 hours prior to co-housing) was 3/6 and the “numbers of non-infected hamsters (Contact) in which viral titers in nasal lavage fluid or supernatants of lung homogenate reached the detection limit (1.8 log10 TCID50/mL) or higher” value ([7]; 90 mg/kg single subcutaneous to Contact 12 hours prior to co-housing) was 0/6. The survival [8] was “all hamsters survived until 10 days after infection”, the body weight loss ([8]; up to 10 days) was “suppression of the body weight loss was observed” and the “plasma concentrations immediately before infection” value (3 mg/kg subcutaneous, administered one day prior to infection) was 6.1 ng/mL. The “plasma concentrations immediately before infection” value (3 mg/kg subcutaneous, administered three days prior to infection) was 5.9 ng/mL, the “plasma concentrations immediately before infection” value (10 mg/kg subcutaneous, administered one day prior to infection) was 12.5 ng/mL and the “plasma concentrations immediately before infection” value (10 mg/kg subcutaneous, administered three days prior to infection) was 3.0 ng/mL. For the same molecule, the EC50 (SARS-CoV-2 [9]) was 1.66 nM, the EC90 ([10]; extrapolated to 100% hamster serum by linear regression, read-out: Hamster serum PA-EC90) was 8.17 nM and the EC90 ([10]; extrapolated to 100% human serum by linear regression, read-out: Human serum PA-EC90) was 7.9 nM. It also gave an EC90 ([10]; extrapolated to 100% mouse serum by linear regression, read-out: Mouse serum PA-EC90) of 19.8 nM and an EC50 (HCoV-OC43) of 92 ± 21 nM.
In the case of `[2H]c1cc(F)c(Cl)c([2H])c1-c1c(N2CC3(C2)CC(F)(F)C3)n(CC#N)c(=[18O])n(-c2cncc(Cl)c2)c1=[18O]` [Compound I-2], the EC50 (SARS-CoV-2 [9]) is reported as 2.36 nM.
For `C#CCn1c(N2CC3(C2)CC(F)(F)C3)c(-c2ccc(F)c(Cl)c2)c(=O)n(-c2cncc(Cl)c2)c1=O` [Compound II-1], the IC50 [11] was 0.68 nM.
